Assay results as given in patent publication US9403830B2, “Inhibitors of leukotriene production” (Boehringer Ingelheim International GmbH, priority 2012, dated 2016).

Tests used:
human LTA4 hydrolase = biological target: T1, human LTA4 hydrolase (Homo sapiens, UniProt P09960); test: LTA4H Enzyme assay (peptidase, Arg-AMC cleavage); format: biochemical; details: LTA4H enzyme 1 nM, Arg-AMC substrate 50 μM, room temperature 1 h, fluorescence 380/460 nm
T1 sequence (P09960 1-611): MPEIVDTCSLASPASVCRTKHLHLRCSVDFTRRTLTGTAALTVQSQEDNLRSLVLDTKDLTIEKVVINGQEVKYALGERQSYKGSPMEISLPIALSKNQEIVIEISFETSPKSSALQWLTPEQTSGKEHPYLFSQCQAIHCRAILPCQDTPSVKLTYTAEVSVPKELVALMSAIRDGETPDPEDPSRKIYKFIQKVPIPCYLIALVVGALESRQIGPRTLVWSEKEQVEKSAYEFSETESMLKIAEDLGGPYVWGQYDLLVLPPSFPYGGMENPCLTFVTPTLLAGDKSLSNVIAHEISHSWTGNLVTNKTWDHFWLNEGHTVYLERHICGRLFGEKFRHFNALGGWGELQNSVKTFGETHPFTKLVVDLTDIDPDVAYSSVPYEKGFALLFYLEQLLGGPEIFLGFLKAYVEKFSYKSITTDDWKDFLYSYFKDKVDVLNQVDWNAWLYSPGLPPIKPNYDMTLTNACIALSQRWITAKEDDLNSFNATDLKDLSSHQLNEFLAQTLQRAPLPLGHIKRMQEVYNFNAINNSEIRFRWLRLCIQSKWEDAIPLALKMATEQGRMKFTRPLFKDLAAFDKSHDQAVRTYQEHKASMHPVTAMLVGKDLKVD
Outline: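 Human LTA4H (1 nM final) incubated with compound and Arg-AMC (50 μM final) in 50 mM Tris-HCl pH 7.5, 100 mM KCl, 0.5% BSA, 1 h at room temperature. Product read as AMC fluorescence (ex 380/em 460 nm); IC50 reported.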

[1] = tested on: LTB4 synthesis in human whole blood; test: human whole blood (HWB) assay, inhibition of LTB4 production; format: cell-based; details: heparinized human whole blood, calcimycin 20 μM stimulation, plasma LTB4
Outline: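 Heparinized human whole blood preincubated with compound 15 min at 37 °C, then stimulated with 20 μM (final) calcimycin for 30 min at 37 °C. Plasma LTB4 measured by antibody-based HTRF; IC50 reported.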

| SMILES | IC50 (human LTA4 hydrolase) | IC50 [1] |
| --- | --- | --- |
| CC(=O)N1CCN(CCn2ncc3cc(Oc4ccc(-c5ccn[nH]5)cc4)ccc32)CC1 [Example 90, 1-[4-(2-{5-[4-(2H-Pyrazol-3-yl)-phenoxy]-indazol-1-yl}-ethyl)-piperazin-1-yl]-ethanone] | 0.45 nM | 130 nM |
| COCCNCc1nc2cc(Oc3ccc(-c4ccn[nH]4)cc3)ccc2[nH]1 [Example 91, (2-Methoxy-ethyl)-{5-[4-(2H-pyrazol-3-yl)-phenoxy]-1H-benzoimidazol-2-ylmethyl}-amine] | 0.21 nM | 140 nM |
| CN(Cc1nc2cc(Oc3ccc(-c4ccn[nH]4)cc3)ccc2[nH]1)CC1CCCOC1 (stereo not drawn) [Example 92, Methyl-{5-[4-(2H-pyrazol-3-yl)-phenoxy]-1H-benzoimidazol-2-ylmethyl}-(tetrahydro-pyran-3-ylmethyl)-amine] | 0.11 nM | 140 nM |
| CC(=O)N1CCN(CCn2cc3cc(Oc4ccc(-c5ccn[nH]5)cc4)ccc3n2)CC1 [Example 93, 1-[4-(2-{5-[4-(2H-Pyrazol-3-yl)-phenoxy]-indazol-2-yl}-ethyl)-piperazin-1-yl]-ethanone] | 0.58 nM | 150 nM |
| CC(=O)N1CCN(CCn2ncc3cc(Oc4ccc(-c5ccn[nH]5)cn4)ccc32)CC1 [Example 94, 1-[4-(2-{5-[5-(2H-Pyrazol-3-yl)-pyridin-2-yloxy]-indazol-1-yl}-ethyl)-piperazin-1-yl]-ethanone] | 1.3 nM | 150 nM |
| CC(=O)N1CCN(CCCn2cc3cc(Oc4ccc(-c5ccn[nH]5)cc4)ccc3n2)CC1 [Example 95, 1-[4-(3-{5-[4-(2H-Pyrazol-3-yl)-phenoxy]-indazol-2-yl}-propyl)-piperazin-1-yl]-ethanone] | 0.83 nM | 150 nM |
| N#CCC1CCN(Cc2ccc3cc(Oc4ccc(-c5ccn[nH]5)cn4)ccc3n2)CC1 [Example 96, (1-{6-[5-(2H-Pyrazol-3-yl)-pyridin-2-yloxy]-quinolin-2-ylmethyl}-piperidin-4-yl)-acetonitrile] | 0.79 nM | 160 nM |
| c1cc(-c2ccc(Oc3ccc4[nH]c(CNCC5CCCO5)nc4c3)cc2)[nH]n1 (stereo not drawn) [Example 97, {5-[4-(2H-Pyrazol-3-yl)-phenoxy]-1H-benzoimidazol-2-ylmethyl}-(tetrahydro-furan-2-ylmethyl)-amine] | 0.54 nM | 160 nM |
| c1cc(-c2ccc(Oc3ccc4[nH]c(CN5CCSCC5)nc4c3)cc2)[nH]n1 [Example 98, 5-[4-(2H-Pyrazol-3-yl)-phenoxy]-2-thiomorpholin-4-ylmethyl-1H-benzoimidazole] | 0.18 nM | 160 nM |
| N#CC1CCN(Cc2ccc3cc(Oc4ccc(-c5ccn[nH]5)cn4)ccc3n2)CC1 [Example 99, 1-{6-[5-(2H-pyrazol-3-yl)-pyridin-2-yloxy]-quinolin-2-ylmethyl}-piperidine-4-carbonitrile] | 0.93 nM | 170 nM |
| c1cc(-c2ccc(Oc3ccc4[nH]c(CNC[C@@H]5CCCO5)nc4c3)cc2)[nH]n1 [Example 100, {5-[4-(2H-Pyrazol-3-yl)-phenoxy]-1H-benzoimidazol-2-ylmethyl}-[(S)-1-(tetrahydro-furan-2-yl)methyl]-amine] | 0.42 nM | 170 nM |
| c1cc(-c2ccc(Oc3ccc4[nH]c(CNC[C@H]5CCCO5)nc4c3)cc2)[nH]n1 [Example 101, {5-[4-(2H-Pyrazol-3-yl)-phenoxy]-1H-benzoimidazol-2-ylmethyl}-[(R)-1-(tetrahydro-furan-2-yl)methyl]-amine] | 0.55 nM | 190 nM |
| c1cc(-c2ccc(Oc3ccc4c(cnn4CCN4CCOCC4)c3)cc2)[nH]n1 [Example 102, 1-(2-Morpholin-4-yl-ethyl)-5-[4-(2H-pyrazol-3-yl)-phenoxy]-1H-indazole] | 0.91 nM | 190 nM |
| CC[C@H](C)N(Cc1nc2cc(Oc3ccc(-c4ccn[nH]4)cc3)ccc2[nH]1)C(C)=O [Example 103, N—((S)-sec-butyl)-N-{5-[4-(2H-pyrazol-3-yl)-phenoxy]-1H-benzoimidazol-2-ylmethyl}-acetamide] | 0.27 nM | 190 nM |
| CN(Cc1nc2cc(Oc3ccc(-c4ccn[nH]4)cc3)ccc2[nH]1)CC1CCOC1 (stereo not drawn) [Example 104, Methyl-{5-[4-(2H-pyrazol-3-yl)-phenoxy]-1H-benzoimidazol-2-ylmethyl}-(tetrahydro-furan-3-ylmethyl)-amine] | 0.27 nM | 190 nM |
| c1cc(-c2ccc(Oc3ccc4nn(CCCN5CCCC5)cc4c3)cc2)[nH]n1 [Example 105, 5-[4-(2H-Pyrazol-3-yl)-phenoxy]-2-(3-pyrrolidin-1-yl-propyl)-2H-indazole] | 0.53 nM | 200 nM |
| c1cc(-c2ccc(Oc3ccc4[nH]c(CNCC5CCOCC5)nc4c3)cc2)[nH]n1 [Example 106, {5-[4-(2H-Pyrazol-3-yl)-phenoxy]-1H-benzoimidazol-2-ylmethyl}-(tetrahydro-pyran-4-ylmethyl)-amine] | 0.17 nM | 200 nM |
| N#C[C@@H]1CCN(Cc2ccc3cc(Oc4ccc(-c5ccn[nH]5)cn4)ccc3n2)C1 [Example 107, (R)-1-{6-[5-(2H-Pyrazol-3-yl)-pyridin-2-yloxy]-quinolin-2-ylmethyl}-pyrrolidine-3-carbonitrile] | 2 nM | 220 nM |
| CC(=O)N1CCN(CCc2ccc3cc(Oc4ccc(-c5ccn[nH]5)cn4)ccc3n2)CC1 [Example 108, 1-[4-(2-{6-[5-(2H-pyrazol-3-yl)-pyridin-2-yloxy]-quinolin-2-yl}-ethyl)-piperazin-1-yl]-ethanone] | 0.54 nM | 230 nM |
| CC(=O)NC1CCN(CCCn2ncc3cc(Oc4ccc(-c5ccn[nH]5)cc4)ccc32)CC1 [Example 109, N-[1-(3-{5-[4-(2H-Pyrazol-3-yl)-phenoxy]-indazol-1-yl}-propyl)-piperidin-4-yl]-acetamide] | 0.47 nM | 230 nM |
| CC(=O)N1CCC(N(C)Cc2ccc3cc(Oc4ccc(-c5ccn[nH]5)cn4)ccc3n2)CC1 [Example 110, 1-[4-(Methyl-{6-[5-(2H-pyrazol-3-yl)-pyridin-2-yloxy]-quinolin-2-ylmethyl}-amino)-piperidin-1-yl]-ethanone] | 0.7 nM | 240 nM |
| c1cc(-c2ccc(Oc3ccc4c(cnn4CCN4CCOCC4)c3)nc2)[nH]n1 [Example 111, 1-(2-Morpholin-4-yl-ethyl)-5-[5-(2H-pyrazol-3-yl)-pyridin-2-yloxy]-1H-indazole] | 2 nM | 280 nM |
| CC(C)(O)C(=O)NC1CCN(CCn2cc3cc(Oc4ccc(-c5ccn[nH]5)cn4)ccc3n2)CC1 [Example 112, 2-Hydroxy-2-methyl-N-[1-(2-{5-[5-(2H-pyrazol-3-yl)-pyridin-2-yloxy]-indazol-2-yl}-ethyl)-piperidin-4-yl]-propionamide] | 2.1 nM | 280 nM |
| c1cc(-c2ccc(Oc3ccc4c(CN5CCOCC5)n[nH]c4c3)nc2)[nH]n1 [Example 113, 3-Morpholin-4-ylmethyl-6-[5-(2H-pyrazol-3-yl)-pyridin-2-yloxy]-1H-indazole] | 2.6 nM | 470 nM |
| c1cc(-c2ccc(Oc3ccc4nc(CN5CCOCC5)oc4c3)cc2)[nH]n1 [Example 114, 2-morpholin-4-ylmethyl-6-[4-(2H-pyrazol-3-yl)-phenoxy]-benzoxazole] | 0.75 nM | 500 nM |
| CC(=O)N1CCN(c2ccc3cc(Oc4ccc(-c5ccn[nH]5)cn4)ccc3n2)CC1 [Example 115, 1-(4-{6-[5-(2H-Pyrazol-3-yl)-pyridin-2-yloxy]-quinolin-2-yl}-piperazin-1-yl)-ethanone] | 1.7 nM | 550 nM |
| CC(=O)NC1CCN(CCCn2cc3cc(Oc4ccc(-c5ccn[nH]5)cc4)ccc3n2)CC1 [Example 116, N-[1-(3-{5-[4-(2H-Pyrazol-3-yl)-phenoxy]-indazol-2-yl}-propyl)-piperidin-4-yl]-acetamide] | 0.95 nM | 580 nM |
| O=C1CC[C@@H](Cn2ncc3cc(Oc4ccc(-c5ccn[nH]5)cn4)ccc32)N1 [Example 117, (S)-5-{5-[5-(2H-Pyrazol-3-yl)-pyridin-2-yloxy]-indazol-1-ylmethyl}-pyrrolidin-2-one] | 4.4 nM | 650 nM |
| OCCCn1ncc2cc(Oc3ccc(-c4ccn[nH]4)cc3)ccc21 [Example 118, 3-{5-[4-(2H-Pyrazol-3-yl)-phenoxy]-indazol-1-yl}-propan-1-ol] | 7 nM | 760 nM |
| O=C1CC[C@@H](COc2nccc3cc(Oc4ccc(-c5ccn[nH]5)cc4)ccc23)N1 [Example 119, (S)-5-{6-[4-(2H-Pyrazol-3-yl)-phenoxy]-isoquinolin-1-yloxymethyl}-pyrrolidin-2-one] | 20 nM | 2000 nM |
